For two molecules, Activity results are on record in ChEMBL document CHEMBL1151644, “Alkaloids and coumarins of Casimiroa edulis” (1985).

The subject of test [1] is Rattus norvegicus. Put plainly: Antiinflammatory activity against carrageenan-induced hind paw edema in rat at 100 mg/kg. Format: functional. Background: In the carrageenan paw model, swelling and tenderness develop within hours.
For test [2], the system named is Rattus norvegicus. Put plainly: Diuretic activity in rat at 125 mg/kg. Format: functional, Urine.

Take `CCCCCCCCCCCCCCCCCCCCCCCCCCCCCCC` [HENTRIACONTANE]: the Activity worked out at 30.4% with Rattus norvegicus [1] and 84% in the test with Rattus norvegicus [2].
Consider `COc1c2ccoc2c(OC)c2oc(=O)ccc12` [ISOPIMPINELLIN], for which the Activity in the test on Rattus norvegicus [1] came to 30.4%; in the test on Rattus norvegicus [2] it was 84%.
